The target in experiment [1] is FK-506 binding protein (FKBP) (Homo sapiens, UniProt P62942). Kind of experiment: Inhibition of PPIase (rotamase) enzyme activity of FKBP (apparent Ki). It counts as biochemical. Conditions: substrate N-succinylAla-Ala-Pro-Phe-p-nitroanilide, chymotrypsin-coupled. The source says:
The inhibition of the PPIase (rotamase) enzyme activity of the FKBP (apparent "Ki" values) can also be measured according to the methods described by either Harding, M. W. et al., Nature 341:758-760 (1989) or Siekierka, J. J. et al., Nature 341:755-757 (1989). The cis-trans isomerization of the proline-alanine peptide bond in a model substrate, N-succinylAla-Ala-Pro-Phe-p-nitroanilide, is monitored spectrophotometrically in a coupled assay with chymotrypsin, which releases 4-nitroanilide from the trans form of the substrate. Fischer, G. et al., Nature 337:476-478 (1989). The inhibitory effect of the addition of different concentrations of inhibitor on the extent of the reaction is determined, and analysis of the change in first order rate constant as a function of inhibitor concentration yields an estimate of the apparent Ki value.

The subject of experiment [2] is human peripheral blood lymphocytes. Kind of experiment: Mitogenesis assay PMA: inhibition of proliferation of human PBLs. The class given is cell-based. Conditions: Lymphocyte, PMA (10 ng/ml) plus ionomycin (250 ng/ml), 48 h incubation. How it is done: (§1) PMA and OKT3mitogens used to stimulate proliferation of human peripheral
(§2) blood lymphocytes (PBC). Compounds are evaluated on their ability to
(§3) Fresh peripheral blood lymphocytes (PBLs) from LeukoPak cells or whole blood from random normal blood donors (tested HIV-negative and hepatitis negative) are isolated and separated by density centrifugation over Histopaque 1077 (Sigma Chemical Co., St. Louis, Mo.). The murine CTLL cytotoxic T cell line and the human Jurkat T cell line are from ATCC (CTLL-2 ATCC TIB214, JURKAT CLONE E6-1 ATCC TIBl52). The human allogeneic B cell lines used for activation of the fresh PBLs are EBV-transformed lymphocytes from normal healthy adult donors with two completely different HLAhaplotypes. All cell lines were routinely tested for the presence of Mycolasma contamination using the GibcoMycotect test kit and are Mycolasma-free. Culture medium consksts of RPMI 1640 (Gibco, Grand Island, N.Y.) containing penicillin (50 U/ml) and streptomycin (50 μg/ml), L-glutamine 2 mM, 2 mercaptoethanol (5×10^-5), 10% heat-inactivated FCS and 10 mM HEPES.
(§4) All chemical stocks were dissolved in DMSO.
(§5) Mitogenesis Assays ("PMA" and "OKT3")
(§6) After 48 h incubation (37° C., 5% CO2), cells were pulsed with 1 μCi of ^3 H-thymidine, harvested 24 h later with a Tom Tek cell harvester, and counted in LKB β-scintillation counter.

Experiment [3] has the same test system. As to the kind of experiment: Mitogenesis assay OKT3: inhibition of proliferation of human PBLs. It counts as cell-based. Conditions: Lymphocyte, OKT3 (10^-4 dilution final), 48 h incubation. Here is the method: as §1, §2, §3, §4, §5, §6
The subject of experiment [4] is PBLs stimulated with LB human viral transformed B lymphoblastoid cells. Kind of experiment: MLR bioassay LB: inhibition of proliferation in mixed lymphocyte reaction. It counts as cell-based. Conditions: Lymphoblastoid cell, pulsed on day 6, harvested 24 h later. How it is done:
(§7) LB and JVMhuman viraltransformed B lymphoblastoid cell lines stimulated t
(§8) proliferate in a mixed lymphocyte reaction (MLR). The compounds are
(§9) evaluated on their ability to inhibit this proliferation.
as §3, §4
(§10) MLR Bioassays ("LB" and "JVM")
(§11) Antigen activated proliferation of PBLs in a primary mixed lymphocyte reaction was assessed in the presence or absence of different concentrations of tested compounds and control drugs. 5×10^4 fresh PBLs were stimulated with 5×10^3 of Mitomycin C treated-allogeneic EBV-transformed β-lymphoglastoid cells, IB and JVM, in a final volume of 200 μl per well in 96-well round-bottomed plates (Mishell, B. B. and S. M. Shiigi, Selected Methods in Cellular Immunology W. H. Freeman and Co., San Francisco, Calif. (1980); Nelson, P. A. et al., Transplantation 50:286 (1990)). Cultures were pulsed on day 6, harvested 24 h later and counted as in previous section.

Experiment [5] has as its system PBLs stimulated with JVM human viral transformed B lymphoblastoid cells. As to the kind of experiment: MLR bioassay JVM: inhibition of proliferation in mixed lymphocyte reaction. It counts as cell-based. Conditions: Lymphoblastoid cell, pulsed on day 6, harvested 24 h later. Here is the method: as §7, §8, §9, §3, §4, §10, §11

Our source for the Ki and IC50 values is patent US5516797A, “Immunosuppressive compounds” (Vertex Pharmaceuticals, Incorporated, priority 1994, dated 1996).

What is called IC50 is the concentration needed to halve the response being measured.

Chain of FK-506 binding protein (FKBP) (P62942 whole entry): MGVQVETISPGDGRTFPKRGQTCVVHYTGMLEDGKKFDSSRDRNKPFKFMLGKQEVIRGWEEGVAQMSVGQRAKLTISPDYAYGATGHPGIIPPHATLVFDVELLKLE

With `COc1ccc(COCc2coc(C(=O)C(=O)N3CCCC[C@H]3C(=O)OCCCCc3ccccc3)c2)cc1` [Compound 103], the Ki in experiment [1] turned out to be 0.7 µM. The IC50 in experiment [2] was 7 µM; in experiment [3], 10 µM; in experiment [4], 10 µM; in experiment [5] it was above 10 µM.

As to `COc1cc(C(=O)C(=O)N2CCCC[C@H]2C(=O)OCCc2cccc3ccccc23)cc(OC)c1OC` [Compound 80], the Ki in experiment [1] is 0.5 µM. Besides, the concentration for half-maximal inhibition (IC50) in experiment [2] was determined as 3 µM; in experiment [3], 4 µM; in experiment [4], 10 µM; in experiment [5] it was 10 µM.

`O=C(C(=O)N1CCCC[C@H]1C(=O)OCCCc1ccccc1)C1=CCCCC1` [Compound 89]: the Ki in experiment [1] is 0.78 µM. The IC50 in experiment [2] was 8 µM; in experiment [3], above 10 µM; in experiment [4] it was above 10 µM; in experiment [5], above 10 µM.

For `COc1cc(C(=O)C(=O)N2CCCC[C@H]2C(=O)OCCc2ccc3ccccc3c2)cc(OC)c1OC` [Compound 79], in experiment [1], the Ki was determined as 0.22 µM. The IC50 in experiment [2] was 10 µM; in experiment [3], 2.5 µM; in experiment [4], above 10 µM; in experiment [5] it was above 10 µM.

Regarding `CC(C)CC(=O)C(=O)N1CCCC[C@H]1C(=O)OCc1ccccc1` [Compound 7], the Ki in experiment [1] is 0.9 µM. Further, the 50% inhibitory concentration (IC50) in experiment [2], in experiment [3], in experiment [4] and in experiment [5] was above 10 µM throughout.

As for `CCCCOc1cccc(C(=O)C(=O)N2CCCC[C@H]2C(=O)OCc2ccccc2)c1` [Compound 75], in experiment [1], the Ki turned out to be 0.36 µM. Moreover, the IC50 was 8 µM in experiment [2], above 10 µM in experiment [3], 9 µM in experiment [4] and above 10 µM in experiment [5].

In the case of `CCCCOc1cccc(C(=O)C(=O)N2CCCC[C@H]2C(=O)OCCCc2ccccc2)c1` [Compound 92], in experiment [1], the Ki worked out at 1.4 µM. Besides, the IC50 is 9 µM in experiment [2], above 10 µM in experiment [3], above 10 µM in experiment [4] and above 10 µM in experiment [5].

Regarding `CCC(=O)C(=O)N1CCCC[C@H]1C(=O)OCCCCc1ccccc1` [Compound 105], in experiment [1], the Ki stood at 1.6 µM. In addition, the 50% inhibitory concentration (IC50) in experiment [2], in experiment [3], in experiment [4] and in experiment [5] was above 10 µM in each case.

On to `O=C(C(=O)N1CCCC[C@H]1C(=O)OCCCCc1ccccc1)C1CCOCC1` [Compound 101], for which, in experiment [1], the Ki was 0.44 µM. Also, the half-maximal inhibitory concentration (IC50) in experiment [2], in experiment [3], in experiment [4] and in experiment [5] was above 10 µM throughout.

As to `COc1cc(C(=O)C(=O)N2CCCC[C@H]2C(=O)OCCCn2cnc3cncnc32)cc(OC)c1OC` [Compound 107], the Ki in experiment [1] was 0.13 µM. The concentration for half-maximal inhibition (IC50) in experiment [2] is 6.5 µM; in experiment [3], above 10 µM; in experiment [4], above 10 µM; in experiment [5] it was above 10 µM.

On to `COc1cc(C(=O)C(=O)N2CCCC[C@H]2C(=O)OCC=CCc2ccccc2)cc(OC)c1OC` [Compound 86], for which, in experiment [1], the Ki worked out at 0.8 µM. Also, the IC50 in experiment [2] is 9 µM; in experiment [3], above 10 µM; in experiment [4], above 10 µM; in experiment [5] it was above 10 µM.

For the molecule `COc1ccc(/C=C/C(=O)C(=O)N2CCCC[C@H]2C(=O)OCc2ccccc2)cc1` [Compound 45], the Ki in experiment [1] turned out to be 1 µM. In addition, the half-inhibitory concentration (IC50) in experiment [2], in experiment [3], in experiment [4] and in experiment [5] was above 10 µM each time.

On to `COc1cc(C(=O)C(=O)N2CCCC[C@H]2C(=O)OCCCCCc2ccccc2)cc(OC)c1OC` [Compound 70], for which, in experiment [1], the Ki was determined as 0.07 µM. Besides, the half-inhibitory concentration (IC50) in experiment [2] was 7 µM; in experiment [3], 4.5 µM; in experiment [4], above 10 µM; in experiment [5], 9 µM.

Consider `COc1cc(C(=O)C(=O)N2CCCC[C@H]2C(=O)OCc2ccc(I)cc2)cc(OC)c1OC` [Compound 78], for which, in experiment [1], the Ki turned out to be 1.4 µM. Besides, the IC50 in experiment [2], in experiment [3], in experiment [4] and in experiment [5] was above 10 µM throughout.
